Tests used:
PC-12 [1] = experiment: Neuroprotective activity in rat PC12 cells assessed as protection against H2O2-induced cell damage at 25 ug/ml after 1 hr by MTT assay relative to control; assay type: functional
PC-12 [2] = experiment: Neuroprotective activity in rat PC12 cells assessed as protection against H2O2-induced cell damage at 12.5 ug/ml after 1 hr by MTT assay relative to control; assay type: functional

Structure (SMILES) | Activity (PC-12 [1]) [%] | Activity (PC-12 [2]) [%]
O=c1c2cc(O)c(O)cc2oc2c(-c3cc(O)c4oc5cc(O)cc(O)c5c(=O)c4c3O)c(O)c([C@@H]3O[C@H](CO)[C@@H](O)[C@H](O)[C@H]3O)c(O)c12 | 157.8 | 95.5
CC1=NN(c2ccccc2)C(=O)C1 [EDARAVONE] | 86.9 | 74.3
O=c1c2c(oc3cc(O)c(-c4cc(O)c5oc6cc(O)cc(O)c6c(=O)c5c4O)c(O)c13)[C@H](O)CC[C@@H]2O[C@@H]1O[C@H](CO)[C@@H](O)[C@H](O)[C@H]1O [PUNICEASIDE B] | 98.1 | 75.1
O=c1c2c(O)c(-c3cc(O)c4oc5cc(O)cc(O)c5c(=O)c4c3O)c(O)cc2oc2c(O)ccc(O[C@@H]3O[C@H](CO)[C@@H](O)[C@H](O)[C@H]3O)c12 [swertiabisxanthone I] | 123 | 89.1

— ChEMBL document CHEMBL1212903, “Neuroprotective xanthone glycosides from Swertia punicea” (2010)
